Data taken from US9617256B2 (priority 2007, dated 2017).
≈ marks a conversion by molar mass, not a printed value.

Legend:
AECO001 (ATCC25922) = assay: MIC broth microdilution, AECO001; type: cell-based, E. coli; settings: Escherichia coli, ATCC25922, read-out: MIC AECO001
How it was run: (§1)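 Incubation: 35° C., ambient air, 18-24 h. Medium: cation-adjusted Mueller-Hinton broth with 2-fold serial dilutions of drug. Inoculum: 3×10^5–7×10^5 CFU/mL final, per CLSI microdilution method.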

[1] = test system: AABA1060 (clinical isolate of Acinetobacter baumannii); assay: MIC broth microdilution, AABA1060; type: cell-based; settings: Acinetobacter baumannii, read-out: MIC AABA1060
How it was run: as §1

APAE001 (ATCC27853) = assay: MIC broth microdilution, APAE001; type: cell-based, P. aeruginosa; settings: Pseudomonas aeruginosa, ATCC27853, read-out: MIC APAE001, APAE001 is ATCC27853
How it was run: as §1

[2] = test system: ASAU001 (laboratory strain of S. aureus, ATCC29213); assay: MIC broth microdilution, ASAU001; type: cell-based; settings: Staphylococcus aureus, ATCC29213, read-out: MIC ASAU001
How it was run: as §1

[3] = test system: AECO063 (ATCC25922 bearing an acrAB mutation); assay: microbe, parasite or virus in culture; type: cell-based, E. coli; settings: Escherichia coli, ATCC25922, read-out: MIC AECO063
How it was run: as §1

[4] = test system: APAE006 (strain of P. aeruginosa in which all efflux pumps are inactivated); assay: microbe, parasite or virus in culture; type: cell-based; settings: Pseudomonas aeruginosa, read-out: MIC APAE006, P. aeruginosa, all efflux pumps inactivated
How it was run: (§2)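 Broth microdilution (CLSI); CA-MHB; 3×10^5–7×10^5 CFU/mL final; 2-fold dilutions; 35° C., ambient air, 18-24 h. APAE006 lacks all active efflux pumps.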

[5] = test system: APAE006 in the presence of 8 micrograms per milliliter of polymyxin B nonapeptide; type: cell-based, P. aeruginosa; settings: in the presence of 8 micrograms per milliliter of polymyxin B nonapeptide
How it was run: as §2

AECO001 HSA AGP = assay: MIC broth microdilution, AECO001 HSA AGP; type: cell-based, E. coli; settings: Escherichia coli
How it was run: as §1

| Compound | MIC (AECO001 (ATCC25922)) [µg/mL] | MIC [1] [µg/mL] | MIC (APAE001 (ATCC27853)) [µg/mL] | MIC [2] [µg/mL] | MIC [3] [µg/mL] | MIC [4] [µg/mL] | MIC APAE006 + PMBN [5] | MIC (AECO001 HSA AGP) [µg/mL] |
| --- | --- | --- | --- | --- | --- | --- | --- | --- |
| C[C@H](NCC(=O)NC[C@H](NC(=O)c1ccc(C#Cc2ccccc2)cc1)C(=O)NO)c1ccccc1 [Example 132-4] | < 2 | 2 to 16 (≈ 4.13 to 33 µM) | 2 to 16 (≈ 4.13 to 33 µM) | 16 to 64 (≈ 33 to 132 µM) | < 2 | < 2 | A (MIC's of 2.0 μg/mL or less = A) | 2 to 16 (≈ 4.13 to 33 µM) |
| C[C@H](N)[C@H](NC(=O)c1ccc(C#Cc2ccccc2)cc1)C(=O)NO [Example 133-1, N-((1S,2S)-2-Amino-1-hydroxycarbamoyl-propyl)-4-phenylethynyl-benzamide] | < 2 | < 2 | < 2 | 16 to 64 (≈ 47.4 to 190 µM) | < 2 | < 2 | A (MIC's of 2.0 μg/mL or less = A) | 2 to 16 (≈ 5.93 to 47.4 µM) |
| C[C@H](N)[C@H](NC(=O)c1ccc(C#Cc2ccc(CN3CCOCC3)cc2)cc1)C(=O)NO [Example 133-2] | < 2 | 16 to 64 (≈ 36.7 to 147 µM) | < 2 | > 64 | < 2 | < 2 | A (MIC's of 2.0 μg/mL or less = A) | 16 to 64 (≈ 36.7 to 147 µM) |
| C[C@H](N)[C@H](NC(=O)c1ccc(C#Cc2ccc(CNC3CC3)cc2)cc1)C(=O)NO [Example 133-3] | < 2 | 16 to 64 (≈ 39.4 to 157 µM) | < 2 | > 64 | < 2 | < 2 | A (MIC's of 2.0 μg/mL or less = A) | 2 to 16 (≈ 4.92 to 39.4 µM) |
| C[C@H](N)[C@H](NC(=O)c1ccc(C#Cc2ccc(CO)cc2)cc1)C(=O)NO [Example 133-4] | 2 to 16 (≈ 5.44 to 43.5 µM) | > 64 | < 2 | > 64 | < 2 | < 2 | A (MIC's of 2.0 μg/mL or less = A) | 16 to 64 (≈ 43.5 to 174 µM) |
| C[C@@H](N)[C@H](NC(=O)c1ccc(C#Cc2cncnc2)cc1)C(=O)NO [Example 133-7] | < 2 | < 2 | < 2 | 2 to 16 (≈ 5.89 to 47.1 µM) | < 2 | < 2 | A (MIC's of 2.0 μg/mL or less = A) | 2 to 16 (≈ 5.89 to 47.1 µM) |
| C[C@@H](N)[C@H](NC(=O)c1ccc(C#Cc2ccncc2)cc1)C(=O)NO [Example 133-8] | 16 to 64 (≈ 47.3 to 189 µM) | 16 to 64 (≈ 47.3 to 189 µM) | 2 to 16 (≈ 5.91 to 47.3 µM) | > 64 | 2 to 16 (≈ 5.91 to 47.3 µM) | < 2 | A (MIC's of 2.0 μg/mL or less = A) | 16 to 64 (≈ 47.3 to 189 µM) |
| C[C@@H](N)[C@H](NC(=O)c1ccc(C#Cc2cccnc2)cc1)C(=O)NO [Example 133-9] | 16 to 64 (≈ 47.3 to 189 µM) | 16 to 64 (≈ 47.3 to 189 µM) | 2 to 16 (≈ 5.91 to 47.3 µM) | > 64 | 2 to 16 (≈ 5.91 to 47.3 µM) | < 2 | A (MIC's of 2.0 μg/mL or less = A) | 16 to 64 (≈ 47.3 to 189 µM) |
| C[C@@H](O)[C@H](NC(=O)c1ccc(C#Cc2ccc(C(F)(F)F)nc2)cc1)C(=O)NO [Example 133-10] | 2 to 16 (≈ 4.91 to 39.3 µM) | 16 to 64 (≈ 39.3 to 157 µM) | 16 to 64 (≈ 39.3 to 157 µM) | 16 to 64 (≈ 39.3 to 157 µM) | < 2 | < 2 | A (MIC's of 2.0 μg/mL or less = A) | 2 to 16 (≈ 4.91 to 39.3 µM) |
| C[C@@H](O)[C@H](NC(=O)c1ccc(C#Cc2cccc(OC(F)(F)F)c2)cc1)C(=O)NO [Example 133-11] | < 2 | 16 to 64 (≈ 37.9 to 152 µM) | 16 to 64 (≈ 37.9 to 152 µM) | 16 to 64 (≈ 37.9 to 152 µM) | < 2 | 2 to 16 (≈ 4.74 to 37.9 µM) | A (MIC's of 2.0 μg/mL or less = A) | 16 to 64 (≈ 37.9 to 152 µM) |
| C[C@@H](O)[C@H](NC(=O)c1ccc(C#Cc2ccc(O)cc2)cc1)C(=O)NO [Example 133-12] | < 2 | 16 to 64 (≈ 45.2 to 181 µM) | < 2 | 16 to 64 (≈ 45.2 to 181 µM) | < 2 | < 2 | A (MIC's of 2.0 μg/mL or less = A) | 2 to 16 (≈ 5.64 to 45.2 µM) |
